Drawing on PMC11506171, “Quercetin as a Modulator of PTPN22 Phosphomonoesterase Activity: A Biochemical and Computational Evaluation” (Current Issues in Molecular Biology, 2024), this text covers inhibition and IC50 for six molecules.

Holding throughout (type): biochemical
Assay [1] concerns the target T1, protein tyrosine phosphatase nonreceptor type 22 (PTPN22) (Homo sapiens, UniProt Q9Y2R2).
T1 construct: catalytic domain, amino acids 1 to 303
T1 sequence (Q9Y2R2 1-303): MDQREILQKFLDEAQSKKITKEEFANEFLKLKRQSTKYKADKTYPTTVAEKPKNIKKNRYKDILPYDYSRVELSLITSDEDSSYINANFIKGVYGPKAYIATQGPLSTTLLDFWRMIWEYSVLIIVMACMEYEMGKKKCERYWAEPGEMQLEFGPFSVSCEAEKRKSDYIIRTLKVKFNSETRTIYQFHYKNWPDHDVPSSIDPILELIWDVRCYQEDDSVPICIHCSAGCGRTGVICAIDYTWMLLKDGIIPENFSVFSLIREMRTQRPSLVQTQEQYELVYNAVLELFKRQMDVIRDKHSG
As to the kind of experiment: pNPP phosphatase assay, single concentration screen at […]. The conditions noted are these: read-out: % inhibition at 50 μM.

In assay [2] the target is T1, protein tyrosine phosphatase nonreceptor type 22 (PTPN22). As to the kind of experiment: pNPP phosphatase assay with recombinant enzyme, reference inhibitor.
Assay [3] has the same target. As to the kind of experiment: pNPP phosphatase assay with recombinant enzyme; Lineweaver-Burk and Dixon plots (Ki […]).

The term inhibition denotes how much of the control response was suppressed. For `O=C1C=C(O)C(=O)c2ccccc21` [2HNQ], in assay [1], the inhibition at 50 µM came to 62%.
Same read-out and setting: the figure for `CO[C@H]1C[C@H](O[C@H]2[C@H](C)O[C@@H](O[C@@H]3/C(C)=C/C[C@@H]4C[C@@H](C[C@]5(C=C[C@H](C)[C@@H](C6CCCCC6)O5)O4)OC(=O)[C@@H]4C=C(C)[C@@H](O)[C@H]5OC/C(=C\C=C\[C@@H]3C)[C@]54O)C[C@@H]2OC)O[C@@H](C)[C@@H]1O` [doramectin] is 50%; for `O=C1C=CC(=O)c2c(O)cccc21` [5HNQ] it is 61%.
The IC50 is the midpoint of a concentration-inhibition curve. As for `C[C@H]1[C@H](C)CC[C@]2(C(=O)O)CC[C@]3(C)C(=CC[C@@H]4[C@@]5(C)CC[C@H](O)C(C)(C)[C@@H]5CC[C@]43C)[C@H]12` [ursolic acid], the IC50 in assay [2] amounted to 37.2 µM.
Turning to `O=c1c(O)c(-c2ccc(O)c(O)c2)oc2cc(O)cc(O)c12` [quercetin], the 50% inhibitory concentration (IC50) in assay [3] turned out to be 29.6 µM.
With `CO[C@H]1C[C@H](O[C@@H]2/C(C)=C/C[C@@H]3C[C@@H](C[C@]4(CC[C@H](C)[C@@H](C5CCCCC5)O4)O3)OC(=O)[C@@H]3C=C(C)/C(=N/O)[C@H]4OC/C(=C\C=C\[C@@H]2C)[C@]43O)O[C@@H](C)[C@@H]1O` [selamectin], the inhibition at 50 µM in assay [1] amounted to 54%.
